Data as given in the CheMixHub viscosity set.

Assay: xn = mol fraction of the nth substance listed

ClCCCl + CCO
viscosity [mPa·s], 101 kPa
Settings	303.15 K	313.15 K	323.15 K
x1 = 0.1495	0.842	–	–
x1 = 0.3026	0.736	–	–
x1 = 0.4507	0.681	–	–
x1 = 0.6007	0.662	–	–
x1 = 0.752	0.659	–	–
x1 = 0.8706	0.659	–	–
x2 = 0.064	0.6974	0.6126	0.5529
x2 = 0.1215	0.6779	0.5938	0.5336
x2 = 0.2295	0.6654	0.5787	0.512
x2 = 0.3279	0.6668	0.5767	0.5115
x2 = 0.3912	0.6702	0.5806	0.5107
x2 = 0.4726	0.6873	0.5896	0.5161
x2 = 0.5989	0.7253	0.6178	0.536
x2 = 0.752	0.7907	0.6671	0.5723
x2 = 0.8819	0.8746	0.7374	0.628

O=S(=O)(O)O + O
100 kPa
Settings	viscosity [mPa·s]
303.15 K, x1 = 0.007147	0.8615
313.15 K, x1 = 0.0566	1.125

CCNc1ccccc1 + CCC(=O)O
308.15 K, 101.33 kPa
Settings	viscosity [mPa·s]
x2 = 0.1567	1.706
x2 = 0.2906	1.897
x2 = 0.4142	2.167
x2 = 0.5224	2.302
x2 = 0.6217	2.533
x2 = 0.7121	2.575
x2 = 0.7933	2.379
x2 = 0.8787	1.916
x2 = 0.9032	1.691
x2 = 0.9363	1.412
x2 = 0.9694	1.113

CCNc1ccccc1 + CCC(=O)c1ccccc1
303.15 K, 100 kPa
Settings	viscosity [mPa·s]
x1 = 0.0789	1.524
x1 = 0.1541	1.537
x1 = 0.2249	1.55
x1 = 0.3002	1.565
x1 = 0.3862	1.581
x1 = 0.4651	1.598
x1 = 0.5244	1.612
x1 = 0.6049	1.631
x1 = 0.6891	1.653
x1 = 0.7354	1.666
x1 = 0.8005	1.683
x1 = 0.8523	1.699
x1 = 0.9099	1.716

CCC(C)Br (stereo not given) + CC(C)(C)O
viscosity [mPa·s], 101.3 kPa
Settings	x1 = 0.05	x1 = 0.102	x1 = 0.2043	x1 = 0.3044	x1 = 0.4041	x1 = 0.5032	x1 = 0.6203	x1 = 0.7036	x1 = 0.8056	x1 = 0.9064
298.15 K	3.175	2.363	1.519	1.152	0.9576	0.8183	0.7087	0.6532	0.6048	0.5718
313.15 K	1.651	1.36	0.9969	0.8102	0.7146	0.6337	0.5665	0.5317	0.4987	0.4777

CCNc1ccccc1 + CC(=O)c1ccccc1
303.15 K, 100 kPa
Settings	viscosity [mPa·s]
x1 = 0.0651	1.524
x1 = 0.1424	1.538
x1 = 0.2225	1.554
x1 = 0.2977	1.568
x1 = 0.3611	1.581
x1 = 0.4487	1.599
x1 = 0.5162	1.614
x1 = 0.5869	1.631
x1 = 0.6407	1.644
x1 = 0.7083	1.662
x1 = 0.7798	1.681
x1 = 0.8256	1.694
x1 = 0.9025	1.715

CCOC=O + c1ccccc1
viscosity [mPa·s], 101 kPa
Settings	x1 = 0.2	x1 = 0.4	x1 = 0.5	x1 = 0.8
293.15 K	0.558	0.501	0.482	0.435
303.15 K	0.491	0.446	0.43	0.391
308.15 K	0.465	0.427	0.409	0.373

ClCCl + ClC(Cl)Cl
Settings	viscosity [mPa·s]
303.15 K, 101.3 kPa, x1 = 0.4966	0.4521

ClCCl + Cc1ccc(C)cc1
101 kPa
Settings	viscosity [mPa·s]
293.15 K, x1 = 0.2949	0.59
293.15 K, x1 = 0.4409	0.561
293.15 K, x1 = 0.5522	0.535
293.15 K, x1 = 0.609	0.522
293.15 K, x1 = 0.6936	0.504
293.15 K, x1 = 0.7459	0.492
293.15 K, x1 = 0.8125	0.476
293.15 K, x1 = 0.8558	0.468
298.15 K, x1 = 0.2347	0.568
298.15 K, x1 = 0.3846	0.541
298.15 K, x1 = 0.4518	0.529
298.15 K, x1 = 0.5662	0.504
298.15 K, x1 = 0.6375	0.488
298.15 K, x1 = 0.6972	0.476
298.15 K, x1 = 0.7342	0.467
298.15 K, x1 = 0.7892	0.457
298.15 K, x1 = 0.8376	0.451
303.15 K, x1 = 0.2286	0.539
303.15 K, x1 = 0.3627	0.515
303.15 K, x1 = 0.4362	0.502
303.15 K, x1 = 0.5371	0.483
303.15 K, x1 = 0.624	0.463
303.15 K, x1 = 0.6948	0.448
303.15 K, x1 = 0.7643	0.433
303.15 K, x1 = 0.818	0.427
